According to US7384959B2, “Treatment of convulsive states” (priority 1999, dated 2008):
Marks after values point to notes of the source that are not given here.

Key:
rat [1] = experiment: Irwin Observation Test in the rat, subcutaneous route; type: in vivo; design: key to Mydriasis / Hyperthermia / Excitation: +=slight; ++=moderate
Text: (§1) The following Tables report the results of the Irwin, PTZ and barbital interaction (sleep induction) tests. Description of these tests may be found in Psychopharmacologica, 13:222-257 (1968), Krall et al, Epilepsia 19:409-428 (1978), and Simon et al, J. Pharmacol, Paris 13:241-252 (1982). See also Roux et al, Phoenix international Pharmacology Reports Nos. D30.2061/2 and D99.021/2.
In Table 1, the following apply: +=slight; ++=moderate
(X/N) indicates the number of rats showing the symptoms.
Observations were performed at 15, 30, 60, 120, 180 minutes and 24 hours after administration.
Hyperthermia and mydriasis were evaluated by comparison of the mean scores obtained in treated and control animals.

rat [2] = experiment: Pentylenetetrazole (PTZ) Seizure Test; type: in vivo; conditions: for NUMBER OF CLONIC CONVULSIONS number of rats / NUMBER OF DEATHS number of rats / NUMBER OF TONIC CONVULSIONS number of rats: 10 rats per group; for NUMBER OF CLONIC CONVULSIONS number of rats / NUMBER OF DEATHS number of rats / NUMBER OF TONIC CONVULSIONS number of rats / NUMBER OF CLONIC CONVULSIONS % antagonism / NUMBER OF DEATHS % antagonism / NUMBER OF TONIC CONVULSIONS % antagonism: observed during 60 minutes; for LATENCY TO CLONIC CONVULSIONS % change from control / LATENCY TO CLONIC CONVULSIONS mean ± s.e.m. / LATENCY TO DEATHS % change from control / LATENCY TO DEATHS mean ± sem. / LATENCY TO TONIC CONVULSIONS % change from control / LATENCY TO TONIC CONVULSIONS mean ± sem.: rat; for anticonvulsant activity in the PTZ Seizure Test: animal model, delivered subcutaneously
Text: as §1
Table 2a reports mean results based on animals showing the symptoms (minimum=3 animals). Table 2b reports results observed during 60 minutes. In these Tables: Student's t Test: NS=Not Significant; *=p<0.05; ** p<0.01; ***=p<0.001 Fisher's Exact Test: No indication=Not Significant; **=p<0.01; ***=p<0.001

mouse = experiment: liver damage (plasma alanine aminotransferase, microscopic examination for hepatic necrosis); type: in vivo
Experimental: (§2) At very high doses, some inhibition of cytochrome P450 sub-types C8/9, 2C18/19 and 2D6 was found, but the concentrations required to inhibit enzyme activities (100 μM) were much greater than the maximum concentrations likely to be found in vivo and are therefore not likely to be clinically relevant.

[3] = target: T1, cytochrome P450 sub-type 1A2 (Homo sapiens, UniProt P05177); experiment: effect on cytochrome P450 activity; type: in vitro ADME
T1 sequence (P05177 1-516): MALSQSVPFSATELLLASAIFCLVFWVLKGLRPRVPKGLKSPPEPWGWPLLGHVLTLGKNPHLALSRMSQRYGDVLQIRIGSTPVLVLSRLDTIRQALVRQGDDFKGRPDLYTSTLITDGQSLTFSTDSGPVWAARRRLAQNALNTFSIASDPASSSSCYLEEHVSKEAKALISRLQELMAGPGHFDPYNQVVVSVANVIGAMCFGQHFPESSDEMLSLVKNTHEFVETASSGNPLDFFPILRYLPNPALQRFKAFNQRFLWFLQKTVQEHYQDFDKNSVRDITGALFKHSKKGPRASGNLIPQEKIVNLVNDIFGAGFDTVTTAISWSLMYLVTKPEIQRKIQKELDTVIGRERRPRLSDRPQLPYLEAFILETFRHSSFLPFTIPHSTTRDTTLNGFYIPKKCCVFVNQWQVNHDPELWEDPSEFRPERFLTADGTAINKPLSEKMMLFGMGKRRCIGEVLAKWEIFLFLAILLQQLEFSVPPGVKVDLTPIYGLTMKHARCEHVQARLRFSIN
Experimental: as §2

[4] = test system: cytochrome P450 sub-type 2C18/19; experiment: effect on cytochrome P450 activity; type: in vitro ADME; conditions: some inhibition at very high doses
Experimental: as §2

[5] = target: cytochrome P450 sub-type 2D6 (Homo sapiens, UniProt P10635); experiment: effect on cytochrome P450 activity; type: in vitro ADME; conditions: some inhibition at very high doses
cytochrome P450 sub-type 2D6, sequence (P10635 whole entry): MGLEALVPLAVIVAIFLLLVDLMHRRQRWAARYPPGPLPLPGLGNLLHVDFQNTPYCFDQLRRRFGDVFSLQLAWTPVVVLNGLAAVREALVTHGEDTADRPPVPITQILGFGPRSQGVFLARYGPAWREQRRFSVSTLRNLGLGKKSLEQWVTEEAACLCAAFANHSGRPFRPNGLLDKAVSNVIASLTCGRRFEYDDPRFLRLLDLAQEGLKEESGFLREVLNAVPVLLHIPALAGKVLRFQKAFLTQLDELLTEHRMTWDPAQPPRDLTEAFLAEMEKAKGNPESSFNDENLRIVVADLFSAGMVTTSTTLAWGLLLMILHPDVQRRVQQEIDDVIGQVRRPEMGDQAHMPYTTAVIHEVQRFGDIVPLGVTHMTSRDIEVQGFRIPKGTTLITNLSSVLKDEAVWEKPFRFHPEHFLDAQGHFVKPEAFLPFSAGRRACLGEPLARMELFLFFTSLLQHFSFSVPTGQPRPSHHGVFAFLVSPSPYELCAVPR
Experimental: as §2

[6] = target: cytochrome P450 sub-type 2E1 (Homo sapiens, UniProt P05181); experiment: effect on cytochrome P450 activity; type: in vitro ADME
cytochrome P450 sub-type 2E1, sequence (P05181 whole entry): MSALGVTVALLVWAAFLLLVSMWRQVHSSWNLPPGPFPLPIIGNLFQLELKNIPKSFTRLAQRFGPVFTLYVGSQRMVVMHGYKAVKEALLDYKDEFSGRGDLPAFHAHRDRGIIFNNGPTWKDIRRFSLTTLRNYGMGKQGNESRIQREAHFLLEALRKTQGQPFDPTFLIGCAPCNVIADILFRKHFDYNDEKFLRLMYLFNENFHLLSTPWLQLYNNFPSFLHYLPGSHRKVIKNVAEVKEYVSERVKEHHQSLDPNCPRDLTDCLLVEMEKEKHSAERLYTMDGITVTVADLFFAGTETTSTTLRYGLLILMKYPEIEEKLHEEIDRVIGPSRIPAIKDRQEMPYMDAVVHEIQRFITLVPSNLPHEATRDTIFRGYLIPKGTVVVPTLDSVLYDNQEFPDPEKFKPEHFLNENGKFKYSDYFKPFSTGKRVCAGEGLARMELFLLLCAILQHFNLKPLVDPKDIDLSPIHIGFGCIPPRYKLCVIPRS
Experimental: as §2

[7] = target: cytochrome P450 sub-type 3A4 (Homo sapiens, UniProt P08684); experiment: effect on cytochrome P450 activity; type: in vitro ADME
cytochrome P450 sub-type 3A4, sequence (P08684 whole entry): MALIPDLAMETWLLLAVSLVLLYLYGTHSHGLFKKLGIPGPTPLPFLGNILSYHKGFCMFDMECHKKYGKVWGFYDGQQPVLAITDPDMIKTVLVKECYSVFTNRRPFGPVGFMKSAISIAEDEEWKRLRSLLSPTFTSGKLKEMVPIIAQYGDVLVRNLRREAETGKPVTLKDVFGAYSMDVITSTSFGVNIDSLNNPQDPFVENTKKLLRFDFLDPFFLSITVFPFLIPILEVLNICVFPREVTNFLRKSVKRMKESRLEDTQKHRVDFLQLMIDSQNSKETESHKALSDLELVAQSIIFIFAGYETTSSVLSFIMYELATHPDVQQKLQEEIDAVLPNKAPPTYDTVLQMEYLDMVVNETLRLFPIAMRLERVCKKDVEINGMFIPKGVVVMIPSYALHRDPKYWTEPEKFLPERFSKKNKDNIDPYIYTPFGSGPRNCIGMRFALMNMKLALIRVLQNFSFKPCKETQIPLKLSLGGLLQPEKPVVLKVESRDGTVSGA
Experimental: as §2

[8] = test system: cytochrome P450 sub-type C8/9; experiment: effect on cytochrome P450 activity; type: in vitro ADME; conditions: some inhibition at very high doses
Experimental: as §2

[9] = test system: attention-deficit hyperactivity disorder (ADHD); conditions: Patrick et al 1987; cited from earlier work
[10] = after intravenous dosing; Ding et al 1997; cited from earlier work

SMILES: COC(=O)[C@@H](c1ccccc1)[C@@H]1CCCCN1 [l-MPH, l-threo-Methylphenidate]
- Irwin test observation (cell wraps: No change) (rat [1]; 2 mg/kg s.c., rat): No
- Mydriasis (rat [1]; 4 mg/kg s.c., at 30′): Mydriasis +
- Excitation (rat [1]; 8 mg/kg s.c., at 30′): Excitation +
- Excitation, number of rats showing the symptoms (X/N) (rat [1]; 8 mg/kg s.c., at 30′): (2/3) at 30′
- Mydriasis (rat [1]; 8 mg/kg s.c., at 30′): Mydriasis +
- Stereotypies (sniffing), number of rats showing the symptoms (X/N) (rat [1]; 8 mg/kg s.c., at 30′): (1/3) at 30′
- Stereotypies (sniffing), number of rats showing the symptoms (X/N) (rat [1]; 16 mg/kg s.c., 30′ → 120′): (3/3) 30′ → 120′
- Excitation (rat [1]; 16 mg/kg s.c., 60′ → 120′): Excitation +
- Excitation, number of rats showing the symptoms (X/N) (rat [1]; 16 mg/kg s.c., 60′ → 120′): (2/3) 60′ → 120′
- Stereotypies (head movements), number of rats showing the symptoms (X/N) (rat [1]; 16 mg/kg s.c., 60′ → 120′): (1/3) 60′ → 120′
- Mydriasis (rat [1]; 16 mg/kg s.c., at 30′): Mydriasis + at 30′
- Excitation (rat [1]; 32 mg/kg s.c., 15′ → 30′): Excitation +
- Excitation, number of rats showing the symptoms (X/N) (rat [1]; 32 mg/kg s.c., 15′ → 30′): (3/3) 15′ → 30′
- ↑ Reactivity to touch, number of rats showing the symptoms (X/N) (rat [1]; 32 mg/kg s.c., 15′ → 30′): (3/3) 15′ → 30′
- Mydriasis (rat [1]; 32 mg/kg s.c., 15′ → 120′): (++ 15′ →
- Stereotypies (sniffing), number of rats showing the symptoms (X/N) (rat [1]; 32 mg/kg s.c., 15′ → 120′): (3/3)
- ↑ Fear, number of rats showing the symptoms (X/N) (rat [1]; 32 mg/kg s.c., 15′ → 120′): (3/3)
- Hyperthermia (rat [1]; 32 mg/kg s.c., at 30′ and 120′): Hyperthermia +
- Mydriasis (rat [1]; 32 mg/kg s.c., at 180′): (+ at 180′)
- Irwin test observations at higher doses (rat [1]; 64, 128 and 256 mg/kg, s.c., rat): all rats exhibited further characteristics including sedation, fore-paw treading, stereotypes (head movements) and decreased muscle tone
- signs of stimulation in the Irwin profile (rat [1]; at doses having anti-convulsant effects): Slight signs of stimulation were noted
- sedation in the Irwin profile (rat [1]; at the doses used in the PTZ test): sedation was not noted
- NUMBER OF CLONIC CONVULSIONS number of rats (rat [2]; 8 mg/kg s.c. −30 min): 10
- NUMBER OF DEATHS number of rats (rat [2]; 8 mg/kg s.c. −30 min): 10
- NUMBER OF TONIC CONVULSIONS number of rats (rat [2]; 8 mg/kg s.c. −30 min): 10
- NUMBER OF CLONIC CONVULSIONS % antagonism (rat [2]; 8 mg/kg s.c. −30 min): 0%
- NUMBER OF DEATHS % antagonism (rat [2]; 8 mg/kg s.c. −30 min): 0%
- NUMBER OF TONIC CONVULSIONS % antagonism (rat [2]; 8 mg/kg s.c. −30 min): 0%
- LATENCY TO CLONIC CONVULSIONS % change from control (rat [2]; 8 mg/kg s.c. −30 min): +38%
- LATENCY TO CLONIC CONVULSIONS mean ± s.e.m. (rat [2]; 8 mg/kg s.c. −30 min): 756.0 ± 105.0 NS sec
- LATENCY TO DEATHS % change from control (rat [2]; 8 mg/kg s.c. −30 min): +20%
- LATENCY TO DEATHS mean ± sem. (rat [2]; 8 mg/kg s.c. −30 min): 1566.1 ± 199.9 NS sec
- LATENCY TO TONIC CONVULSIONS % change from control (rat [2]; 8 mg/kg s.c. −30 min): +23%
- LATENCY TO TONIC CONVULSIONS mean ± sem. (rat [2]; 8 mg/kg s.c. −30 min): 1443.0 ± 198.2 NS sec
- NUMBER OF CLONIC CONVULSIONS number of rats (rat [2]; 16 mg/kg s.c. −30 min): 9
- NUMBER OF DEATHS number of rats (rat [2]; 16 mg/kg s.c. −30 min): 7
- NUMBER OF TONIC CONVULSIONS number of rats (rat [2]; 16 mg/kg s.c. −30 min): 8
- NUMBER OF CLONIC CONVULSIONS % antagonism (rat [2]; 16 mg/kg s.c. −30 min): 10%
- NUMBER OF DEATHS % antagonism (rat [2]; 16 mg/kg s.c. −30 min): 30%
- NUMBER OF TONIC CONVULSIONS % antagonism (rat [2]; 16 mg/kg s.c. −30 min): 20%
- LATENCY TO CLONIC CONVULSIONS % change from control (rat [2]; 16 mg/kg s.c. −30 min): +99%
- LATENCY TO CLONIC CONVULSIONS mean ± s.e.m. (rat [2]; 16 mg/kg s.c. −30 min): 1086.7 ± 213.6* sec
- LATENCY TO DEATHS % change from control (rat [2]; 16 mg/kg s.c. −30 min): +35%
- LATENCY TO DEATHS mean ± sem. (rat [2]; 16 mg/kg s.c. −30 min): 1757.1 ± 209.8* sec
- LATENCY TO TONIC CONVULSIONS % change from control (rat [2]; 16 mg/kg s.c. −30 min): +53%
- LATENCY TO TONIC CONVULSIONS mean ± sem. (rat [2]; 16 mg/kg s.c. −30 min): 1785.0 ± 292.2* sec
- NUMBER OF CLONIC CONVULSIONS number of rats (rat [2]; 32 mg/kg s.c. −30 min): 10
- NUMBER OF DEATHS number of rats (rat [2]; 32 mg/kg s.c. −30 min): 3++
- NUMBER OF TONIC CONVULSIONS number of rats (rat [2]; 32 mg/kg s.c. −30 min): 3++
- NUMBER OF CLONIC CONVULSIONS % antagonism (rat [2]; 32 mg/kg s.c. −30 min): 0%
- NUMBER OF DEATHS % antagonism (rat [2]; 32 mg/kg s.c. −30 min): 70%
- NUMBER OF TONIC CONVULSIONS % antagonism (rat [2]; 32 mg/kg s.c. −30 min): 70%
- LATENCY TO CLONIC CONVULSIONS % change from control (rat [2]; 32 mg/kg s.c. −30 min): +226%
- LATENCY TO CLONIC CONVULSIONS mean ± s.e.m. (rat [2]; 32 mg/kg s.c. −30 min): 1782.0 ± 161.7*** sec
- LATENCY TO DEATHS % change from control (rat [2]; 32 mg/kg s.c. −30 min): +150%
- LATENCY TO DEATHS mean ± sem. (rat [2]; 32 mg/kg s.c. −30 min): 3260.0 ± 121.7*** sec
- LATENCY TO TONIC CONVULSIONS % change from control (rat [2]; 32 mg/kg s.c. −30 min): +162%
- LATENCY TO TONIC CONVULSIONS mean ± sem. (rat [2]; 32 mg/kg s.c. −30 min): 3070.0 ± 164.6*** sec
- anticonvulsant activity in the PTZ Seizure Test (rat [2]): has anticonvulsant potential
- anticonvulsant activity in the PTZ Seizure Test (rat [2]; listed as l-enantiomer): possess anticonvulsant activity
- liver damage as assessed by increased plasma level of alanine aminotransferase and microscopic examination for hepatic necrosis (mouse): not to be linked with liver damage
- effect on activity of cytochrome P450 sub-type 1A2 [3]: little or no effect
- concentration required to inhibit enzyme activity, cytochrome P450 sub-type 2C18/19 [4]: 100 µM
- concentration required to inhibit enzyme activity, cytochrome P450 sub-type 2D6 [5]: 100 µM
- effect on activity of cytochrome P450 sub-type 2E1 [6]: little or no effect
- effect on activity of cytochrome P450 sub-type 3A4 [7]: little or no effect
- concentration required to inhibit enzyme activity, cytochrome P450 sub-type C8/9 [8]: 100 µM
- pharmacological action in the treatment of ADHD [9]: no action on the part of the l-enantiomer (l-MPH) has been detected
- detection in the brain [10]: detected in the brain
